Laboratory results reported in patent US9073821B2, “Hydroxamic acid derivative” (priority 2010, dated 2015).
pIC50: −log10 of the molar value.

The compounds below were run against Pseudomonas aeruginosa LpxC enzyme (Pseudomonas aeruginosa (strain ATCC 15692 / DSM 22644 / CIP 104116 / JCM 14847 / LMG 12228 / 1C / PRS 101 / PAO1), UniProt P47205) (assay: biochemical). Conditions: class symbols A/B/C by IC50; Table 3; read-out: Enzyme inhibitory activity (inhibitory activity on Pseudomonas aeruginosa LpxC enzyme).
Assay type: biochemical

pIC50	Structure (SMILES)
> 8.00	CCOC1CN(Cc2ccc(C#Cc3ccc(C(=O)N(C)C(C(=O)NC)C(=O)NO)cc3C)cc2)C1 (centres unmarked) [Compound 582, 2-[{[4-({4-[(3-ethoxyazetidin-1-yl)methyl]phenyl}ethynyl)-3-methylphenyl]carbonyl}(methyl)amino]-N-hydroxy-N′-methylpropanediamide]
> 8.00	CNC(=O)[C@@](C)(C(=O)NO)N(C)C(=O)c1ccc(C#Cc2coc(CO)c2)cc1 [Compound 616, (2S)-N-hydroxy-2-[(4-{[5-(hydroxymethyl)furan-3-yl]ethynyl}benzoyl)(methyl)amino]-N′,2-dimethylpropanediamide]
> 8.00	CNC(=O)C(C(=O)NO)N(C)C(=O)c1ccc(C#Cc2ccc(CN3CCCC(C)(C)C3)cc2)cc1 (centres unmarked) [Compound 513, 2-[{[4-({4-[(3,3-dimethylpiperidin-1-yl)methyl]phenyl}ethynyl)phenyl]carbonyl}(methyl)amino]-N-hydroxy-N′-methylpropanediamide]
7.00 to 8.00	CNC(=O)C(C(=O)NO)N(C)C(=O)c1ccc(C#Cc2ccc(COCC(C)(C)N)cc2)cc1 (centres unmarked) [Compound 508, 2-[{[4-({4-[(2-amino-2-methylpropoxy)methyl]phenyl}ethynyl)phenyl]carbonyl}(methyl)amino]-N-hydroxy-N′-methylpropanediamide]
> 8.00	CNC(=O)C(C(=O)NO)N(C)C(=O)c1ccc(-c2ccc(-c3ccc(CO)o3)cc2)cc1 (centres unmarked) [Compound 499, N-hydroxy-2-[({4′-[5-(hydroxymethyl)furan-2-yl]biphenyl-4-yl}carbonyl)(methyl)amino]-N′-methylpropanediamide]
> 8.00	CCOC1CN(Cc2ccc(C#Cc3ccc(C(=O)N(C)C(C(=O)NC)C(=O)NO)cc3)cc2)C1 (centres unmarked) [Compound 535, 2-[{[4-({4-[(3-ethoxyazetidin-1-yl)methyl]phenyl}ethynyl)phenyl]carbonyl}(methyl)amino]-N-hydroxy-N′-methylpropanediamide]

Same assay, conditions: inhibitory activity on Pseudomonas aeruginosa LpxC enzyme, class symbols A/B/C; read-out: Enzyme inhibitory activity

pIC50	Structure (SMILES)
7.00 to 8.00	CNC(=O)C(C(=O)NO)N(C)C(=O)c1ccc(C#Cc2ccc(C3(N)CC3)cc2)cc1 (centres unmarked) [Compound 394, 2-{[(4-{[4-(1-aminocyclopropyl)phenyl]ethynyl}phenyl)carbonyl](methyl)amino}-N-hydroxy-N′-methylpropanediamide]
7.00 to 8.00	CNC(=O)C(C(=O)NO)N(C)C(=O)c1ccc(-c2ccc3c(c2)CCN3)cc1 (centres unmarked) [Compound 39, 2-{[4-(2,3-dihydro-1H-indol-5-yl)benzoyl](methyl)amino}-N-hydroxy-N′-methylpropanediamide]
< 7.00	CNC(=O)C(C(=O)NO)N(C)C(=O)c1ccc(-c2ccccc2)s1 (centres unmarked) [Compound 442, N-hydroxy-N′-methyl-2-{methyl[(5-phenylthiophen-2-yl)carbonyl]amino}propanediamide]
> 8.00	CNC(=O)C(C(=O)NO)N(C)C(=O)c1ccc(C#Cc2ccc(OCCN3CCOCC3)cc2)cc1 (centres unmarked) [Compound 382, N-hydroxy-N′-methyl-2-(methyl {[4-({4-[2-(morpholin-4-yl)ethoxy]phenyl}ethynyl)phenyl]carbonyl}amino)propanediamide]
> 8.00	CNC(=O)C(NC(=O)c1ccc(-c2ccc(OCCO)cc2)cc1)C(=O)NO (centres unmarked) [Compound 113, N-hydroxy-2-({[4′-(2-hydroxyethoxy)biphenyl-4-yl]carbonyl}amino)-N′-methylpropanediamide]
> 8.00	CNC(=O)C(C(=O)NO)N(C)C(=O)c1ccc(-c2ccccc2F)cc1 (centres unmarked) [Compound 59, 2-{[(2′-fluorobiphenyl-4-yl)carbonyl](methyl)amino}-N-hydroxy-N′-methylpropanediamide]
> 8.00	CCCOc1ccc(-c2ccc(C(=O)N(C)C(C(=O)NC)C(=O)NO)cc2)cc1 (centres unmarked) [Compound 212, N-hydroxy-N′-methyl-2-{methyl[(4′-propoxybiphenyl-4-yl)carbonyl]amino}propanediamide]
7.00 to 8.00	CNC(=O)C(C(=O)NO)N(C)C(=O)c1ccc(OCc2ccccc2)cc1 (centres unmarked) [Compound 454, 2-[{[4-(benzyloxy)phenyl]carbonyl}(methyl)amino]-N-hydroxy-N′-methylpropanediamide]
> 8.00	CCC(F)(F)c1ccc(-c2ccc(C(=O)N(C)C(C(=O)NC)C(=O)NO)cc2)cc1 (centres unmarked) [Compound 251, 2-[{[4′-(1,1-difluoropropyl)biphenyl-4-yl]carbonyl}(methyl)amino]-N-hydroxy-N′-methylpropanediamide]
> 8.00	O=C(NC(C(=O)NO)C(=O)NCC1CN(Cc2ccccc2)CCO1)c1ccc(-c2ccc(OCCO)cc2)cc1 (centres unmarked) [Compound 160, N-[(4-benzylmorpholin-2-yl)methyl]-N′-hydroxy-2-({[4′-(2-hydroxyethoxy)biphenyl-4-yl]carbonyl}amino)propanediamide]
> 8.00	CNC(=O)C(C(=O)NO)N(C)C(=O)c1ccc(-c2ccc(OCCCn3ccnc3)cc2)cc1 (centres unmarked) [Compound 96, N-hydroxy-2-[({4′-[3-(1H-imidazol-1-yl)propoxy]biphenyl-4-yl}carbonyl)(methyl)amino]-N′-methylpropanediamide]
7.00 to 8.00	CNC(=O)C(NC(=O)c1ccc(-c2ccccc2)cc1)C(=O)NO (centres unmarked) [Compound 110, 2-[(biphenyl-4-ylcarbonyl)amino]-N-hydroxy-N′-methylpropanediamide]
> 8.00	CC(=O)NCCNC(=O)C(NC(=O)c1ccc(-c2ccc(OCCO)cc2)cc1)C(=O)NO (centres unmarked) [Compound 135, N-[2-(acetylamino)ethyl]-N′-hydroxy-2-({[4′-(2-hydroxyethoxy)biphenyl-4-yl]carbonyl}amino)propanediamide]
> 8.00	CNC(=O)C(C(=O)NO)N(C)C(=O)c1ccc(-c2ccc(CCF)cc2)cc1 (centres unmarked) [Compound 238, 2-[{[4′-(2-fluoroethyl)biphenyl-4-yl]carbonyl}(methyl)amino]-N-hydroxy-N′-methylpropanediamide]
> 8.00	CNC(=O)C(C(=O)NO)N(C)C(=O)c1ccc(-c2ccc(NCc3cccnc3)cc2)cc1 (centres unmarked) [Compound 65, N-hydroxy-N′-methyl-2-[methyl({4′-[(pyridin-3-ylmethyl)amino]biphenyl-4-yl}carbonyl)amino]propanediamide]
7.00 to 8.00	O=C(NC(C(=O)NO)C(=O)NCCc1ccccc1)c1ccc(-c2ccc(OCCO)cc2)cc1 (centres unmarked) [Compound 125, N-hydroxy-2-({[4′-(2-hydroxyethoxy)biphenyl-4-yl]carbonyl}amino)-N′-(2-phenylethyl)propanediamide]
7.00 to 8.00	CNC(=O)C(C(=O)NO)N(C)C(=O)c1ccc(-c2ccc(C(C)O)cc2)cc1 (centres unmarked) [Compound 261, N-hydroxy-2-[{[4′-(1-hydroxyethyl)biphenyl-4-yl]carbonyl}(methyl)amino]-N′-methylpropanediamide]
> 8.00	CNC(=O)C(C(=O)NO)N(C)C(=O)c1ccc(C#Cc2ccc(CNCc3ccccc3)cc2)cc1 (centres unmarked) [Compound 330, 2-[{[4-({4-[(benzylamino)methyl]phenyl}ethynyl)phenyl]carbonyl}(methyl)amino]-N-hydroxy-N′-methylpropanediamide]
> 8.00	CNC(=O)C(C(=O)NO)N(C)C(=O)c1ccc(C#Cc2ccc(OC)nc2)cc1 (centres unmarked) [Compound 219, N-hydroxy-2-[{4-[(6-methoxypyridin-3-yl)ethynyl]benzoyl}(methyl)amino]-N′-methylpropanediamide]
7.00 to 8.00	CNC(=O)C(C(=O)NO)N(C)C(=O)c1ccc(-c2ccc(OCCCNC3CC3)cc2)cc1 (centres unmarked) [Compound 217, 2-[({4′-[3-(cyclopropylamino)propoxy]biphenyl-4-yl}carbonyl)(methyl)amino]-N-hydroxy-N′-methylpropanediamide]
< 7.00	CNC(=O)C(C(=O)NO)N(C)C(=O)c1ccc(-c2cccc(OC)n2)cc1 (centres unmarked) [Compound 296, N-hydroxy-2-[{[4-(6-methoxypyridin-2-yl)phenyl]carbonyl}(methyl)amino]-N′-methylpropanediamide]
7.00 to 8.00	CCCCCNc1ccc(-c2ccc(C(=O)N(C)C(C(=O)NC)C(=O)NO)cc2)cn1 (centres unmarked) [Compound 475, N-hydroxy-N′-methyl-2-[methyl({4-[6-(pentylamino)pyridin-3-yl]phenyl}carbonyl)amino]propanediamide]
> 8.00	CNC(=O)C(C(=O)NO)N(C)C(=O)c1ccc(C#Cc2ccc(CNCc3ncco3)cc2)cc1 (centres unmarked) [Compound 485, N-hydroxy-N′-methyl-2-[methyl({4-[(4-{[(1,3-oxazol-2-ylmethyl)amino]methyl}phenyl)ethynyl]phenyl}carbonyl)amino]propanediamide]
< 7.00	CNC(=O)C(NC(=O)c1ccc(OC(F)(F)F)cc1)C(=O)NO (centres unmarked) [Compound 16, N-hydroxy-N′-methyl-2-{[4-(trifluoromethoxy)benzoyl]amino}propanediamide]
> 8.00	CNC(=O)C(C(=O)NO)N(C)C(=O)c1ccc(-c2ccc(NC)c(C)c2)cc1 (centres unmarked) [Compound 45, N-hydroxy-N′-methyl-2-(methyl {[3′-methyl-4′-(methylamino)biphenyl-4-yl]carbonyl}amino)propanediamide]
> 8.00	CNC(=O)C(C(=O)NO)N(C)C(=O)c1ccc(-c2ccc(CCCCN3CCOCC3)cc2)cc1 (centres unmarked) [Compound 221, N-hydroxy-N′-methyl-2-[methyl({4′-[4-(morpholin-4-yl)butyl]biphenyl-4-yl}carbonyl)amino]propanediamide]

Structure (SMILES)	pIC50
CNC(=O)C(C)(C(=O)NO)N(C)C(=O)c1ccc(C#Cc2ccc(CN3CCCOCC3)cc2)cc1 (centres unmarked) [Compound 346, N-hydroxy-N′,2-dimethyl-2-{methyl[(4-{[4-(1,4-oxazepan-4-ylmethyl)phenyl]ethynyl}phenyl)carbonyl]amino}propanediamide]	> 8.00
CNC(=O)C(C(=O)NO)N(C)C(=O)c1ccc(-c2ccc(OCCC(O)CO)cc2)cc1 (centres unmarked) [Compound 181, 2-[{[4′-(3,4-dihydroxybutoxy)biphenyl-4-yl]carbonyl}(methyl)amino]-N-hydroxy-N′-methylpropanediamide]	> 8.00
CNC(=O)C(C(=O)NO)N(C)C(=O)c1ccc(-c2ccc(OCCCCOC)cc2)cc1 (centres unmarked) [Compound 215, N-hydroxy-2-[{[4′-(4-methoxybutoxy)biphenyl-4-yl]carbonyl}(methyl)amino]-N′-methylpropanediamide]	> 8.00
